From PubChem BioAssay (NCI)
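How tested: cells in 96-well plates exposed to compound for 48 hours at five concentrations. GI50 marks 50% less growth. TGI: concentration producing complete growth inhibition.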

Legend:
Assay in all cases: NCI-60 cell line screen, 48 h
NCI-H226 lung = tested on: NCI-H226 lung
MDA-MB-231 breast = tested on: MDA-MB-231 breast
LOX IMVI melanoma = tested on: LOX IMVI melanoma
SW-620 colon = tested on: SW-620 colon
T-47D breast = tested on: T-47D breast
SK-MEL-2 melanoma = tested on: SK-MEL-2 melanoma
A498 renal = tested on: A498 renal
SK-OV-3 ovarian = tested on: SK-OV-3 ovarian
EKVX NSCLC = tested on: EKVX NSCLC
HOP-62 NSCLC = tested on: HOP-62 NSCLC
NCI/ADR-RES ovarian = tested on: NCI/ADR-RES ovarian
M14 melanoma = tested on: M14 melanoma
KM12 colon = tested on: KM12 colon
RXF 393 renal = tested on: RXF 393 renal
K-562 leukemia = tested on: K-562 leukemia
786-0 renal = tested on: 786-0 renal
NCI-H460 lung = tested on: NCI-H460 lung
HS 578T breast = tested on: HS 578T breast
SK-MEL-5 melanoma = tested on: SK-MEL-5 melanoma
CAKI-1 renal = tested on: CAKI-1 renal
BT-549 breast = tested on: BT-549 breast
COLO 205 colon = tested on: COLO 205 colon
UACC-257 melanoma = tested on: UACC-257 melanoma
SN12C renal = tested on: SN12C renal
HCC-2998 colon = tested on: HCC-2998 colon
HL-60(TB) leukemia = tested on: HL-60(TB) leukemia
IGROV1 ovarian = tested on: IGROV1 ovarian
SF-539 CNS = tested on: SF-539 CNS
PC-3 prostate = tested on: PC-3 prostate
ACHN renal = tested on: ACHN renal
MCF7 breast = tested on: MCF7 breast
MOLT-4 leukemia = tested on: MOLT-4 leukemia
DU-145 prostate = tested on: DU-145 prostate
UO-31 renal = tested on: UO-31 renal
MDA-MB-435 = tested on: MDA-MB-435
SK-MEL-28 melanoma = tested on: SK-MEL-28 melanoma
TK-10 renal = tested on: TK-10 renal
OVCAR-3 ovarian = tested on: OVCAR-3 ovarian
SNB-19 CNS = tested on: SNB-19 CNS
HOP-92 NSCLC = tested on: HOP-92 NSCLC
UACC-62 melanoma = tested on: UACC-62 melanoma
SF-295 CNS = tested on: SF-295 CNS
HCT-116 colon = tested on: HCT-116 colon
OVCAR-4 ovarian = tested on: OVCAR-4 ovarian
HT29 colon = tested on: HT29 colon
SF-268 CNS = tested on: SF-268 CNS
HCT-15 colon = tested on: HCT-15 colon
MALME-3M melanoma = tested on: MALME-3M melanoma
OVCAR-8 ovarian = tested on: OVCAR-8 ovarian
NCI-H522 lung = tested on: NCI-H522 lung
SNB-75 CNS = tested on: SNB-75 CNS
RPMI-8226 leukemia = tested on: RPMI-8226 leukemia
A549 NSCLC = tested on: A549 NSCLC
U251 CNS = tested on: U251 CNS
CCRF-CEM leukemia = tested on: CCRF-CEM leukemia
OVCAR-5 ovarian = tested on: OVCAR-5 ovarian
NCI-H23 lung = tested on: NCI-H23 lung
SR leukemia = tested on: SR leukemia

N=c1ccc2nc3ccc(N)cc3sc-2c1
GI50 (NCI-H226 lung): 12.4 µM
TGI (NCI-H226 lung): 28.2 µM
GI50 (MDA-MB-231 breast): 3.56 µM
TGI (MDA-MB-231 breast): 20.3 µM
GI50 (LOX IMVI melanoma): 2.72 µM
TGI (LOX IMVI melanoma): 12.5 µM
GI50 (SW-620 colon): 3.92 µM
TGI (SW-620 colon): 23.5 µM
GI50 (T-47D breast): 4.05 µM
TGI (T-47D breast): 18.8 µM
GI50 (SK-MEL-2 melanoma): 6.08 µM
TGI (SK-MEL-2 melanoma): 22.5 µM
GI50 (A498 renal): 26.2 µM
TGI (A498 renal): > 100 µM
GI50 (SK-OV-3 ovarian): 15.6 µM
TGI (SK-OV-3 ovarian): 63.5 µM
GI50 (EKVX NSCLC): 6.63 µM
TGI (EKVX NSCLC): 81.1 µM
GI50 (HOP-62 NSCLC): 5.06 µM
TGI (HOP-62 NSCLC): 49.4 µM
GI50 (NCI/ADR-RES ovarian): 2.53 µM
TGI (NCI/ADR-RES ovarian): 10.7 µM
GI50 (M14 melanoma): 4.34 µM
TGI (M14 melanoma): 21.8 µM
GI50 (KM12 colon): 4.24 µM
TGI (KM12 colon): > 100 µM
GI50 (RXF 393 renal): 12.2 µM
TGI (RXF 393 renal): 28.2 µM
GI50 (K-562 leukemia): 4.47 µM
TGI (K-562 leukemia): 74.9 µM
GI50 (786-0 renal): 9.99 µM
TGI (786-0 renal): 29.7 µM
GI50 (NCI-H460 lung): 5.23 µM
TGI (NCI-H460 lung): > 100 µM
GI50 (HS 578T breast): 20.9 µM
TGI (HS 578T breast): > 100 µM
GI50 (SK-MEL-5 melanoma): 1.7 µM
TGI (SK-MEL-5 melanoma): 3.53 µM
GI50 (CAKI-1 renal): 4.19 µM
TGI (CAKI-1 renal): 20.3 µM
GI50 (BT-549 breast): 10.6 µM
TGI (BT-549 breast): 60.9 µM
GI50 (COLO 205 colon): 2.25 µM
TGI (COLO 205 colon): 12.5 µM
GI50 (UACC-257 melanoma): 2.75 µM
TGI (UACC-257 melanoma): 11.1 µM
GI50 (SN12C renal): 3.19 µM
TGI (SN12C renal): 11 µM
GI50 (HCC-2998 colon): 6.82 µM
TGI (HCC-2998 colon): 97.7 µM
GI50 (HL-60(TB) leukemia): 1.9 µM
TGI (HL-60(TB) leukemia): 20.8 µM
GI50 (IGROV1 ovarian): 6.77 µM
TGI (IGROV1 ovarian): 75 µM
GI50 (SF-539 CNS): 3.21 µM
TGI (SF-539 CNS): 8.62 µM
GI50 (PC-3 prostate): 2.56 µM
TGI (PC-3 prostate): 15.6 µM
GI50 (ACHN renal): 8.55 µM
TGI (ACHN renal): 23.2 µM
GI50 (MCF7 breast): 3.5 µM
TGI (MCF7 breast): 13.1 µM
GI50 (MOLT-4 leukemia): 4.59 µM
TGI (MOLT-4 leukemia): > 100 µM
GI50 (DU-145 prostate): 16.8 µM
TGI (DU-145 prostate): 40.8 µM
GI50 (UO-31 renal): 26 µM
TGI (UO-31 renal): > 100 µM
GI50 (MDA-MB-435): 2.37 µM
TGI (MDA-MB-435): 5.21 µM
GI50 (SK-MEL-28 melanoma): 13.1 µM
TGI (SK-MEL-28 melanoma): 32.6 µM
GI50 (TK-10 renal): 11.7 µM
TGI (TK-10 renal): 35.5 µM
GI50 (OVCAR-3 ovarian): 3.21 µM
TGI (OVCAR-3 ovarian): 13.7 µM
GI50 (SNB-19 CNS): 3.17 µM
TGI (SNB-19 CNS): 14.9 µM
GI50 (HOP-92 NSCLC): 17.7 µM
TGI (HOP-92 NSCLC): 61 µM
GI50 (UACC-62 melanoma): 2.93 µM
TGI (UACC-62 melanoma): 8.38 µM
GI50 (SF-295 CNS): 4.28 µM
TGI (SF-295 CNS): 59.1 µM
GI50 (HCT-116 colon): 2.67 µM
TGI (HCT-116 colon): 10.5 µM
GI50 (OVCAR-4 ovarian): 3.78 µM
TGI (OVCAR-4 ovarian): 13.5 µM
GI50 (HT29 colon): 11.1 µM
TGI (HT29 colon): 40.8 µM
GI50 (SF-268 CNS): 6.42 µM
TGI (SF-268 CNS): 56.2 µM
GI50 (HCT-15 colon): 5.4 µM
TGI (HCT-15 colon): > 100 µM
GI50 (MALME-3M melanoma): 6.22 µM
TGI (MALME-3M melanoma): 32.5 µM
GI50 (OVCAR-8 ovarian): 3.69 µM
TGI (OVCAR-8 ovarian): 14 µM
GI50 (NCI-H522 lung): 2.24 µM
TGI (NCI-H522 lung): 7 µM
GI50 (SNB-75 CNS): 3.77 µM
TGI (SNB-75 CNS): 16.4 µM
GI50 (RPMI-8226 leukemia): 2.87 µM
TGI (RPMI-8226 leukemia): 26 µM
GI50 (A549 NSCLC): 3.43 µM
TGI (A549 NSCLC): > 100 µM
GI50 (U251 CNS): 3.45 µM
TGI (U251 CNS): 10.5 µM
GI50 (CCRF-CEM leukemia): 3.55 µM
TGI (CCRF-CEM leukemia): 35.3 µM
GI50 (OVCAR-5 ovarian): 7.62 µM
TGI (OVCAR-5 ovarian): 24.3 µM
GI50 (NCI-H23 lung): 2.77 µM
TGI (NCI-H23 lung): 14.3 µM
GI50 (SR leukemia): 4.65 µM
TGI (SR leukemia): > 100 µM
